Test results as given in the supplement of paper PMC9013687.

Legend:
Danio rerio embryo [1] = assay: EC10 Pigmentation decrease; higher = less potent
Description: (§1)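 Zebrafish embryos (UFZ-OBI strain) were exposed from 2 hpf for 48 h (2 dpf) or 96 h (4 dpf) at 28 °C; spontaneous tail coiling was scored at 25 hpf. Morphological features from automated image analysis (FishInspector), heart rate and locomotor response were fitted with drc models. Quantal endpoints were dichotomised at 2.5 SD from controls and fitted with a log-logistic model; heart rate, pigmentation and STC were normalised to the replicate control mean. Betamethasone was tested as betamethasone dipropionate, diflorasone as diflorasone diacetate.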

Danio rerio embryo [2] = assay: EC20 Heart rate; higher = less potent
Description: as §1

Danio rerio embryo [3] = settings: exposure time: 4 dpf
Description: as §1

Danio rerio embryo [4] = assay: EC50 Eye size_Decrease
Description: as §1

Danio rerio embryo [5] = assay: EC20 Lack of SB; higher = less potent; settings: exposure time: 4 dpf
Description: as §1

Danio rerio embryo [6] = assay: EC10 Eye size_Decrease; higher = less potent
Description: as §1

Danio rerio embryo [7] = assay: EC10 STC bell shape; higher = less potent; settings: exposure time: 25 h
Description: as §1

Danio rerio embryo [8] = assay: EC10 Heart rate; higher = less potent
Description: as §1

Danio rerio embryo [9] = assay: EC10 Lack of SB; higher = less potent; settings: exposure time: 4 dpf
Description: as §1

Danio rerio embryo [10] = test system: Danio rerio embryo
Description: as §1

Danio rerio embryo [11] = assay: EC20 Pigmentation decrease; higher = less potent
Description: as §1

Danio rerio embryo [12] = assay: EC20 STC bell shape; higher = less potent; settings: exposure time: 25 h
Description: as §1

Danio rerio embryo [13] = assay: EC20 Eye size_Decrease; higher = less potent
Description: as §1

Danio rerio embryo [14] = assay: EC10 LMR ligth decrease; higher = less potent; settings: exposure time: 4 dpf
Description: as §1

Danio rerio embryo [15] = assay: EC10 Pigmentation increase; higher = less potent; settings: exposure time: 4 dpf
Description: as §1

Danio rerio embryo [16] = assay: EC10 STC increase; higher = less potent; settings: exposure time: 25 h
Description: as §1

Danio rerio embryo [17] = assay: EC20 LMR ligth decrease; higher = less potent; settings: exposure time: 4 dpf
Description: as §1

Danio rerio embryo [18] = settings: exposure time: 4 dpf; remark: listed apart in the source
Description: as §1

Danio rerio embryo [19] = assay: EC20 Head size_Decrease; higher = less potent; settings: exposure time: 2 dpf
Description: as §1

Danio rerio embryo [20] = assay: EC20 Head trunk angle_Decrease; higher = less potent; settings: exposure time: 2 dpf
Description: as §1

Danio rerio embryo [21] = assay: EC10 Mandibular arch distance_Decrease; higher = less potent; settings: exposure time: 4 dpf
Description: as §1

Danio rerio embryo [22] = assay: EC20 Mandibular arch distance_Decrease; higher = less potent; settings: exposure time: 4 dpf
Description: as §1

Danio rerio embryo [23] = assay: EC50 Head size_Decrease; settings: exposure time: 2 dpf
Description: as §1

Danio rerio embryo [24] = assay: EC10 Head trunk angle_Decrease; higher = less potent; settings: exposure time: 2 dpf
Description: as §1

Danio rerio embryo [25] = assay: EC50 Head trunk angle_Decrease; settings: exposure time: 2 dpf
Description: as §1

Danio rerio embryo [26] = assay: EC20 Pigmentation increase; higher = less potent; settings: exposure time: 4 dpf
Description: as §1

Danio rerio embryo [27] = assay: EC20 STC increase; higher = less potent; settings: exposure time: 25 h
Description: as §1

Danio rerio embryo [28] = assay: EC50 Mandibular arch distance_Decrease; settings: exposure time: 4 dpf
Description: as §1

Danio rerio embryo [29] = assay: EC10 Head size_Decrease; higher = less potent; settings: exposure time: 2 dpf
Description: as §1

Danio rerio embryo [30] = assay: EC50 Head-trunk angle_Decrease; settings: exposure time: 2 dpf
Description: as §1

Danio rerio embryo [31] = assay: EC10 STC decrease; higher = less potent; settings: exposure time: 25 h
Description: as §1

Danio rerio embryo [32] = assay: EC20 STC decrease; higher = less potent; settings: exposure time: 25 h
Description: as §1

Structure (SMILES) | EC10 Pigmentation decrease (Danio rerio embryo [1]; exposure time: 2 dpf) [µM] | EC20 Heart rate (Danio rerio embryo [2]; exposure time: 2 dpf) [µM] | EC20 Heart rate (Danio rerio embryo [2]; exposure time: 4 dpf) [µM] | EC50 Lack of SB (Danio rerio embryo [3]) [µM] | EC50 Eye size Decrease (Danio rerio embryo [4]; exposure time: 4 dpf) [µM] | EC20 Lack of SB (Danio rerio embryo [5]) [µM] | EC10 Eye size Decrease (Danio rerio embryo [6]; exposure time: 4 dpf) [µM] | EC10 STC bell shape (Danio rerio embryo [7]) [µM] | EC10 Heart rate (Danio rerio embryo [8]; exposure time: 2 dpf) [µM] | EC10 Heart rate (Danio rerio embryo [8]; exposure time: 4 dpf) [µM] | EC10 Lack of SB (Danio rerio embryo [9]) [µM] | EC50 Pigmentation decrease (Danio rerio embryo [10]; exposure time: 2 dpf) [µM] | EC20 Pigmentation decrease (Danio rerio embryo [11]; exposure time: 2 dpf) [µM] | EC20 STC bell shape (Danio rerio embryo [12]) [µM] | EC20 Eye size Decrease (Danio rerio embryo [13]; exposure time: 4 dpf) [µM] | EC10 LMR ligth decrease (Danio rerio embryo [14]) [µM] | EC10 Pigmentation increase (Danio rerio embryo [15]) [µM] | EC10 STC increase (Danio rerio embryo [16]) [µM] | EC50 Eye size Decrease (Danio rerio embryo [4]; exposure time: 2 dpf) [µM] | EC20 LMR ligth decrease (Danio rerio embryo [17]) [µM] | EC50 Heart rate (Danio rerio embryo [18]) [µM] | EC20 Head size Decrease (Danio rerio embryo [19]) [µM] | EC20 Head trunk angle Decrease (Danio rerio embryo [20]) [µM] | EC10 Mandibular arch distance Decrease (Danio rerio embryo [21]) [µM] | EC10 Eye size Decrease (Danio rerio embryo [6]; exposure time: 2 dpf) [µM] | EC20 Mandibular arch distance Decrease (Danio rerio embryo [22]) [µM] | EC50 Head size Decrease (Danio rerio embryo [23]) [µM] | EC10 Head trunk angle Decrease (Danio rerio embryo [24]) [µM] | EC50 Head trunk angle Decrease (Danio rerio embryo [25]) [µM] | EC20 Pigmentation increase (Danio rerio embryo [26]) [µM] | EC20 STC increase (Danio rerio embryo [27]) [µM] | EC50 Mandibular arch distance Decrease (Danio rerio embryo [28]) [µM] | EC10 Head size Decrease (Danio rerio embryo [29]) [µM] | EC20 Eye size Decrease (Danio rerio embryo [13]; exposure time: 2 dpf) [µM] | EC10 Pigmentation decrease (Danio rerio embryo [1]; exposure time: 4 dpf) [µM] | EC50 Head-trunk angle Decrease (Danio rerio embryo [30]) [µM] | EC10 STC decrease (Danio rerio embryo [31]) [µM] | EC50 Pigmentation decrease (Danio rerio embryo [10]; exposure time: 4 dpf) [µM] | EC20 STC decrease (Danio rerio embryo [32]) [µM] | EC20 Pigmentation decrease (Danio rerio embryo [11]; exposure time: 4 dpf) [µM]
Cc1ccc(-c2cc(C(F)(F)F)nn2-c2ccc(S(N)(=O)=O)cc2)cc1 [Celecoxib] | 23.7 | 16.1 | 4.72 | 9.14 | 13.4 | 8.45 | 9.06 | 20.4 | 10.3 | 2.25 | 8.08 | 34 | 27.1 | 23.8 | 10.5 | – | – | – | – | – | – | – | – | – | – | – | – | – | – | – | – | – | – | – | – | – | – | – | – | –
CC(C)(C)C(O)/C(=C/c1ccc(Cl)cc1Cl)n1cncn1 (stereo not drawn) [Diniconazole] | 6.17 | 6.61 | 7 | – | 5.05 | – | 2.97 | – | 4.6 | 5.23 | – | – | 7.3 | – | 3.61 | 0.478 | 2.49 | 6.86 | 7.85 | 0.855 | 11.3 | 4.37 | 3.2 | 1.96 | 6.22 | 3.04 | 5.99 | 2.62 | 4.5 | 4.99 | 7.82 | 6.4 | 3.64 | 6.78 | – | – | – | – | – | –
C[Si](Cn1cncn1)(c1ccc(F)cc1)c1ccc(F)cc1 [Flusilazole] | – | 26.2 | 7.13 | 2.78 | 5.51 | 1.99 | 4.51 | – | 16 | 4.6 | 1.64 | – | – | – | 4.86 | – | – | – | 22.3 | – | – | 28.8 | – | 6.12 | 21.5 | 7.71 | 30.1 | – | – | – | – | 11.4 | 28.1 | 21.8 | 3.38 | 11.8 | 2.72 | 22.2 | 4.11 | 7.16
